In patent US20250228851A1, “ALLOSTERIC INHIBITOR COMPOUNDS FOR OVERCOMING CANCER RESISTANCE” (priority 2021, published 2025):
pIC50: −log10 of the molar value.

Tested on: Sup-B15 (p185-BCR-ABL)
Test: XTT cell viability, Sup-B15 (WT-Sup-B15)
Assay type: cell-based, human
Protocol: • 1. Ba/F3 cells were obtained from the German Collection of Microorganisms and Cell Cultures (DSMZ, Braunschweig, Germany) and maintained in RPMI 1640 medium supplemented with 10% fetal calf serum (Invitrogen) containing 10 ng/ml of interleukin-3 (Cell Concepts, Umkirch, Germany). Ecotropic Phoenix cells and Rat-1 cells were cultured in Dulbecco's modified Eagle's medium supplemented with 10% fetal calf serum. GNF-2 (Sigma-Adrich, Steinheim, Germany) was dissolved in dimethyl sulfoxide and added at a final concentration of […]. Cell growth was assessed by dye exclusion using Trypan blue. Proliferation was assessed using the XTT proliferation kit (Roche, Mannheim, Germany), according to the manufacturer's instructions. • 2. Ba/F3: IL-3 dependent lymphatic murine pro B cell line. Ba/F3 cells expressing either p185-BCR-ABL1 (p185-BCR-ABL-Ba/F3) or p210-BCR-ABL (p210-BCR-ABL-Ba/F3). p185-BCR-ABL1 (activated kinases substitute for the IL-3 signaling and therefore render the cells IL3 independent. Ba/F3 cells expressing either p185-BCR-ABL (p185-Ba/F3) or p210-BCR-ABL (p210-Ba/F3). Ba/F3 cells obtained from the German Collection of Microorganisms and Cell Cultures (DSMZ, Braunschweig, Germany). • 3. Mutant transduced Ba/F3 cells (T315I-p185-BCR-ABL1 or T315I-p210-BCR-ABL1): Ba/F3 cells expressing either the mutated forms T315I-p185-BCR-ABL1 or T315I-p210-BCR-ABL1. • 4. WT-Sup-B15: A Ph+ ALL cell line harboring the p185-BCR-ABL. Sup-B15: established from the bone marrow of a child with acute lymphoblastic leukemia (B cell precursor ALL) in second relapse in 1984; described in the literature to carry the ALL-variant (m-BCR) of the BCR-ABL1 fusion gene (e1-a2) correct, because it results in the p185-BCR-ABL version. • 5. […] V617FJAK2 HEL: (Human erythroleukemia) is a growth factor independent erythroleukemic cell line established from the bone marrow of a patient with relapsed Hodgkin disease after autologous bone marrow transplantation (Martin P & Papayannopoulou T: Science 1982; 216:1233-1235). HEL cells display a block in differentiation at the level of common erythroid-megakaryocytic progenitor and have been commonly used as a model to study erythroid and megakaryocytic differentiation. • 7. Jurkat: an immortalized human T lymphocyte first derived from the peripheral blood of a child suffering from T cell leukemia. Jurkat cells are used to study acute T cell leukemia, T cell signaling, and the expression of various chemokine receptors susceptible to viral entry, particularly HIV.
FIG. 2: Effect of Compound 16 on leukemia cell lines (Jurkat, Sup-B15 and BV173). Cell viablility (CV) was determined following incubation of the 1 m cells/ml of each cell line with increasing concentration of the Compound 16 [empty vehicle (0.0 μM+IL3), 2.5, 5.0 and 10.0 μM]. CV was measured by the XTT method. The means±SD of triplicates from one representative experiment out of three performed are given.

With COc1ccc(C(=O)N2CCN(c3cc(Nc4ccc(OC(F)(F)F)cc4)ncn3)CC2)cc1OC [Compound 16] the cells inhibited (10 μM) was “around 69%”, the pIC50 (Sup-B15, XTT, estimated) was ~5.35 and the “antiproliferative response (in words)” value (Sup-B15 / WT-Sup-B15, increasing concentration up to 10 μM) was “potently inhibited the proliferation”.
